Assay: Storage stability: appearance, assay/label strength (LS), total impurities/degradation products
Format: physicochemical
Conditions: for I/D (%): tablets, desiccant study
Protocol: In some embodiments, the film-coated tablets were packaged in 75 and 100 mL white HDPE bottles (Lots A and B, respectively, as described in Tables 11A, 11B) with 1 g silica gel desiccant canisters and a polyester fiber coil. The 75 and 100 mL HDPE bottles contained fourteen and twenty eight tablets, respectively. Each HDPE bottle was capped using a white, continuous thread, child-resistant polypropylene screw cap with an […], aluminum-faced line. The packaged tablets (14 and 28 counts) were evaluated for stability at 40° C./75% RH and 25° C./60% RH. Additionally, the 14-count bottles (without cap) were evaluated for stability under open conditions at 40° C./75% RH.
For each of the impact studies, the sofosbuvir/velpatasvir SSD/voxilaprevir SSD tablets were packaged in a designated commercial packaging configuration (28-count, 100 mL HPDE bottle, coil, 1 g desiccant), and stored for 12 weeks at 25° C./60% RH and 40° C./75% RH. Tablets were also packaged in open containers (28-count, 100 mL HPDE bottle without cap) and stored for 4 weeks at 40° C./75% RH and for 1 week at 50° C./92% RH.
The sofosbuvir/velpatasvir SSD/voxilaprevir SSD tablets were packaged in the designated commercial packaging configuration (28-count, 100 mL HPDE bottle, coil, 1 g desiccant), and stored for 6 months at 25° C./60% RH and 40° C./75% RH.

CC(C)OC(=O)C(C)N[P@](=O)(OC[C@H]1O[C@@H](n2ccc(=O)[nH]c2=O)[C@](C)(F)[C@@H]1O)Oc1ccccc1 (stereo in doubt) [Sofosbuvir, (S)-isopropyl 2-(((S)-(((2R,3R,4R,5R)-5-(2,4-dioxo-3,4-dihydropyrimidin-1(2H)-yl)-4-fluoro-3-hydroxy-4-methyltetrahydrofuran-2-yl)methoxy)(phenoxy)phosphoryl)amino)propanoate]
0.0%: Total Imp./Deg. (%) (Batch C tablets, closed 1 g desiccant, 25° C./60% RH, 3 months) | Total Imp./Deg. (%) (Batch C tablets, closed 1 g desiccant, 25° C./60% RH, 6 months) | Total Imp./Deg. (%) (Batch C tablets, closed 1 g desiccant, 30° C./75% RH, 3 months) | Total Imp./Deg. (%) (Batch C tablets, closed 1 g desiccant, 30° C./75% RH, 6 months) | Total Imp./Deg. (%) (Batch C tablets, closed 1 g desiccant, 40° C./75% RH, 1 month) | Total Imp./Deg. (%) (Batch C tablets, closed 1 g desiccant, 40° C./75% RH, 3 months) | Total Imp./Deg. (%) (Batch C tablets, closed 1 g desiccant, 40° C./75% RH, 6 months) | Total Imp./Deg. (%) (Batch C tablets, closed 1 g desiccant, Initial, time 0) | Total Imp./Deg. Products (%) (SOF/VEL SSD/VOX SSD granules (Lot F), glass vials, Initial, 0 months) | total impurities/degradation products (desiccant/packaging study tablets, all conditions, 6 months) | total impurities/degradation products (granules (Lot F), over 6 month storage at 25° C./60% RH and 40° C./75% RH, open and closed) | total impurities/degradation products (packaged Formulation G tablets (Tables 11A, 11B), 40° C./75% RH and 25° C./60% RH for 6 months) | total impurities/degradation products (packaged tablets Batch A, up to 6 months under all conditions) | total impurities/degradation products (packaged tablets Batch D, up to 1 month under all conditions) | total impurities/degradation products (packaged tablets Batches B and C, up to 6 months under all conditions) | total impurities/degradation products (tablet Lots A-D from sub-potent/super-potent VEL SSD and VOX SSD, all conditions) | Total Imp./Deg. (%) (tablets Batch A, 25° C./60% RH, 3 mo) | Total Imp./Deg. (%) (tablets Batch A, 25° C./60% RH, 6 mo) | Total Imp./Deg. (%) (tablets Batch A, 30° C./75% RH, 3 mo) | Total Imp./Deg. (%) (tablets Batch A, 30° C./75% RH, 6 mo) | Total Imp./Deg. (%) (tablets Batch A, 40° C./75% RH, 1 mo) | Total Imp./Deg. (%) (tablets Batch A, 40° C./75% RH, 3 mo) | Total Imp./Deg. (%) (tablets Batch A, 40° C./75% RH, 6 mo) | Total Imp./Deg. (%) (tablets Batch A, Initial, 0 mo) | Total Imp./Deg. (%) (tablets Batch B, 25° C./60% RH, 3 mo) | Total Imp./Deg. (%) (tablets Batch B, 25° C./60% RH, 6 mo) | Total Imp./Deg. (%) (tablets Batch B, 30° C./75% RH, 3 mo) | Total Imp./Deg. (%) (tablets Batch B, 30° C./75% RH, 6 mo) | Total Imp./Deg. (%) (tablets Batch B, 40° C./75% RH, 1 mo) | Total Imp./Deg. (%) (tablets Batch B, 40° C./75% RH, 3 mo) | Total Imp./Deg. (%) (tablets Batch B, 40° C./75% RH, 6 mo) | Total Imp./Deg. (%) (tablets Batch B, Initial, 0 mo) | Total Imp./Deg. (%) (tablets Batch D, 40° C./75% RH, 1 mo) | Total Imp./Deg. (%) (tablets Batch D, Initial, 0 mo) | Total Imp./Deg. (%) (tablets Lot A, 25° C./60% RH Closed, 1 mo) | Total Imp./Deg. (%) (tablets Lot A, 25° C./60% RH Closed, 3 mo) | Total Imp./Deg. (%) (tablets Lot A, 25° C./60% RH Closed, 6 mo) | Total Imp./Deg. (%) (tablets Lot A, 40° C./75% RH Closed, 1 mo) | Total Imp./Deg. (%) (tablets Lot A, 40° C./75% RH Closed, 3 mo) | Total Imp./Deg. (%) (tablets Lot A, 40° C./75% RH Closed, 6 mo) | Total Imp./Deg. (%) (tablets Lot A, 40° C./75% RH Open, 1 mo) | Total Imp./Deg. (%) (tablets Lot A, 40° C./75% RH Open, 3 mo) | Total Imp./Deg. (%) (tablets Lot A, 40° C./75% RH Open, 6 mo) | Total Imp./Deg. (%) (tablets Lot A, Initial, 0 mo) | Total Imp./Deg. (%) (tablets Lot B, 25° C./60% RH Closed, 1 mo) | Total Imp./Deg. (%) (tablets Lot B, 25° C./60% RH Closed, 3 mo) | Total Imp./Deg. (%) (tablets Lot B, 25° C./60% RH Closed, 6 mo) | Total Imp./Deg. (%) (tablets Lot B, 40° C./75% RH Closed, 1 mo) | Total Imp./Deg. (%) (tablets Lot B, 40° C./75% RH Closed, 3 mo) | Total Imp./Deg. (%) (tablets Lot B, 40° C./75% RH Closed, 6 mo) | Total Imp./Deg. (%) (tablets Lot B, Initial, 0 mo) | total impurities/degradation products (tablets from SSDs made with high-peroxide copovidone (544 ppm VEL SSD, 655 ppm VOX SSD)) | Total Imp./Deg. (%) (tablets from VEL SSD 7.0% / VOX SSD 3.2% water content, Initial, time 0) | Total Imp./Deg. (%) (tablets from VEL SSD 7.0% / VOX SSD 3.2% water content, closed, 1 g desiccant, 25° C./60% RH, 12 weeks) | Total Imp./Deg. (%) (tablets from VEL SSD 7.0% / VOX SSD 3.2% water content, closed, 1 g desiccant, 40° C./75% RH, 4 weeks) | Total Imp./Deg. (%) (tablets from VEL SSD 7.0% / VOX SSD 3.2% water content, closed, 1 g desiccant, 40° C./75% RH, 12 weeks) | Total Imp./Deg. (%) (tablets from VEL SSD 7.0% / VOX SSD 3.2% water content, open, no desiccant, 40° C./75% RH, 4 weeks) | total impurities/degradation products (tablets from VEL SSD with 6.0% residual ethanol and VOX SSD with 2.1% residual acetone, all conditions) | total impurities/degradation products (tablets from VEL SSD with 7.0% and VOX SSD with 3.2% water content, all conditions) | Total Imp./Deg. (%) (tablets from copovidone with 544 ppm (VEL SSD) / 655 ppm (VOX SSD) peroxides, Initial, time 0) | Total Imp./Deg. (%) (tablets from copovidone with 544 ppm (VEL SSD) / 655 ppm (VOX SSD) peroxides, closed, 1 g desiccant, 25° C./60% RH, 12 weeks) | Total Imp./Deg. (%) (tablets from copovidone with 544 ppm (VEL SSD) / 655 ppm (VOX SSD) peroxides, closed, 1 g desiccant, 40° C./75% RH, 4 weeks) | Total Imp./Deg. (%) (tablets from copovidone with 544 ppm (VEL SSD) / 655 ppm (VOX SSD) peroxides, closed, 1 g desiccant, 40° C./75% RH, 12 weeks) | Total Imp./Deg. (%) (tablets from copovidone with 544 ppm (VEL SSD) / 655 ppm (VOX SSD) peroxides, open, no desiccant, 40° C./75% RH, 4 weeks) | I/D (%) (closed, 1 g desiccant, 25° C./60% RH, 12 weeks) | I/D (%) (closed, 1 g desiccant, 25° C./60% RH, 24 weeks) | I/D (%) (closed, 1 g desiccant, 40° C./75% RH, 4 weeks) | I/D (%) (closed, 1 g desiccant, 40° C./75% RH, 12 weeks) | I/D (%) (closed, 1 g desiccant, 40° C./75% RH, 24 weeks) | I/D (%) (closed, no desiccant, 25° C./60% RH, 12 weeks) | I/D (%) (closed, no desiccant, 25° C./60% RH, 24 weeks) | I/D (%) (closed, no desiccant, 40° C./75% RH, 4 weeks) | I/D (%) (closed, no desiccant, 40° C./75% RH, 12 weeks) | I/D (%) (closed, no desiccant, 40° C./75% RH, 24 weeks)

Reference: US10912814B2, “Combination formulation of three antiviral compounds” (priority 2016, dated 2021)
